This note sets out measurements from US20090062223A1, “AMINO TRICYCLIC-NUCLEOSIDE COMPOUNDS, COMPOSITIONS, AND METHODS OF USE” (GENELABS TECHNOLOGIES, INC., priority 2007, published 2009).

Data set [1] in a line: Chemical stability in acidic solution (acid stability). It counts as physicochemical. The settings on record: pH 4.5 chemical solution; pH 4.5, 37° C.; read-out: Acid Stability (T ½, mins @ pH 4.5).
The test system of a further data set is Caco-2 cells. As to the kind of experiment: in vitro. In kind it is in vitro ADME. As for the experimental part: Caco-2 cells were maintained in Dulbecco's Modification of Eagle's Medium (DMEM) with sodium pyruvate, Glutmax supplemented with 1% Pen/Strep, 1% NEAA and 10% fetal bovine serum in an incubator set at 37° C., 90% humidity and 5% CO2. Caco-2 cells between passage 43 and 61 were grown to confluence over at least 21-days on 24 well PET (polyethylene-terephthalate) plates (BD Biosciences). Experiments were run using a new HBSS donor buffer from Invitrogen containing additional 10 mM HEPES, 15 mM Glucose with pH adjusted to pH 6.5. The receiver well used HBSS buffer supplemented with 1% BSA and the pH adjusted to pH 7.4. After an initial equilibration with transport buffer, TEER values were read to test membrane integrity. The experiment was started by the addition of buffers containing test compounds and 100 μl of solution is taken at 1 and 2 hrs from the receiver compartment. Removed buffer was replaced with fresh buffer and a correction was applied to all calculations for the removed material. Each compound was tested in 2 separate replicate wells for each condition. All samples were immediately collected into 400 μl 100% acetonitrile acid to precipitate protein and stabilize test compounds. Cells were dosed on the apical or basolateral side to determine forward (A to B) and reverse (B to A) permeability. Permeability through a cell free trans-well was also determined as a measure of cellular permeability through the membrane and non-specific binding. To test for non-specific binding and compound instability the total amount of drug was quantitated at the end of the experiment and compared to the material present in the original dosing solution as a percent recovery. Samples were analyzed by LC/MS/MS.
The apparent permeability, Papp, and % recovery were calculated as follows: […]
where, • dR/dt is the slope of the cumulative concentration in the receiver compartment versus time in μM/s based on receiver concentrations measured at 60 and 120 minute. • Vr and Vd is the volume in the receiver and donor compartment in cm^3, respectively. • A is the area of the cell monolayer (0.33 cm^2). • D0 and D120 is the measured donor concentration at the beginning and end of the experiment, respectively. • R120 is the receiver concentration at the end of the experiment (120 minutes).
The apparent permeability for certain compounds were determined using the above procedure.

Data set [2] can be described thus: Solubility (shaking flask). It counts as physicochemical. The note with it: thermodynamic from solid, 37° C. for 24 hours. As for the experimental part: The solubility for certain compounds were determined using the following protocol and procedure. 1) The solution, sterile water or phosphate buffer solution (PBS), was added to the test compound tube to make the final concentration 10 mg/mL. 2) The sample tube was vortexed and incubated at 37° C. for 24 hours. During the incubation period, the sample tube was vortexed several times. 3) After the incubation, vortex the tube and centrifuge the tube at 13,000 rpm for 10 mins using an Eppendorf Centrifuge Model 5415C. If the solution was still cloudy, centrifuge it for longer until a clear supernatant was achieved. 4) The supernatant was diluted to 1×, 10× and 100× in 50% ACN in water. 5) A six point standard curve was prepared separately to make the final concentrations of 1 μg/mL, 5 μg/mL, 10 μg/mL, 20 μg/mL, 40 μg/mL and 60 μg/mL. 6) Samples were quantified using an HPLC with UV detector. 7) From the three concentrations of 1×, 10× and 100× supernatant, choose the value, which was fallen into the standard curve range (1 ug/mL-60 ug/mL), as the final result. If all the results were out of the curve range, adjust using a dilution factor to make the value within the curve range.

The mark [3] stands for this setting: phosphate buffer solution (PBS), aqueous buffer, PBS.

Each structure is given as a SMILES string. In brackets after ≈: the same amount, converted by molar mass.

In general, solubility refers to how much of the substance goes into solution per volume. A low value points to a poorly soluble substance. Consider `CC(C)C(=O)O[C@@H]1[C@@H](CO)O[C@@H](n2cc3c4c(ncnc42)NC(=O)C=C3N)C1(C)O` (stereo in doubt) [Compound 115, Isobutyric acid 5-(9-amino-7-oxo-6,7-dihydro-2,3,5,6-tetraaza-benzo[cd]azulen-2-yl)-4-hydroxy-2-hydroxymethyl-4-methyl-tetrahydro-furan-3-yl ester], for which the half-life at 1 µg/mL in data set [1] was under 30 min. In addition, the “Permeability Papp (A to B) × 10^−6 cm/s (Caco-2 A-B)” value (shortened to “Permeability Papp”) in the data set on Caco-2 cells is given as “high”. For the same compound, the solubility at 24 h in data set [2] (setting [3]) was determined as 134 µg/mL (≈ 321 µM).

Turning to `CCCCCC(=O)OC[C@H]1O[C@@H](n2cc3c4c(ncnc42)NC(=O)C=C3N)[C@@](C)(O)[C@@H]1O` (stereo in doubt) [Compound 101, Hexanoic acid 5-(9-amino-7-oxo-6,7-dihydro-2,3,5,6-tetraaza-benzo[cd]azulen-2-yl)-3,4-dihydroxy-4-methyl-tetrahydro-furan-2-ylmethylester], in data set [1], the half-life at 1 µg/mL was under 30 min. Further, the “Permeability Papp” value in the data set with Caco-2 cells is “high”. This compound also registered a solubility at 24 h in data set [2] (setting [3]) of 137 µg/mL (≈ 308 µM).

Take `CC(=O)OC[C@H]1O[C@@H](n2cc3c4c(ncnc42)NC(=O)C=C3N)[C@@](C)(O)[C@@H]1OC(C)=O` (stereo in doubt) [Compound 135, Acetic acid 3-acetoxy-5-(9-amino-7-oxo-6,7-dihydro-2,3,5,6-tetraaza-benzo[cd]azulen-2-yl)-4-hydroxy-4-methyl-tetrahydro-furan-2-ylmethylester]: in data set [1], the half-life at 1 µg/mL is under 15 min. For the same compound, the “Permeability Papp” value with Caco-2 cells is “medium”. The compound further gave a solubility at 24 h in data set [2] (setting [3]) of 7280 µg/mL (≈ 16900 µM).

Take `CC(C)C(=O)OCOC(=O)NC1=CC(=O)Nc2ncnc3c2c1cn3[C@@H]1O[C@H](CO)[C@@H](O)[C@]1(C)O` (stereo in doubt) [Compound 109, Isobutyric acid 2-(3,4-dihydroxy-5-hydroxymethyl-3-methyl-tetrahydro-furan-2-yl)-7-oxo-6,7-dihydro-2H-2,3,5,6-tetraaza-benzo[cd]azulen-9-ylcarbamoyloxymethyl ester]: the half-life at 1 µg/mL in data set [1] was over 120 min. Further, the “Permeability Papp” value in the data set with Caco-2 cells is given as “low”. Also, the solubility at 24 h in data set [2] (setting [3]) turned out to be 215 µg/mL (≈ 437 µM).

As to `CC1(O)C(O)C(CO)OC1n1cc2c3c(ncnc31)NC(=O)C=C2N` (stereo not shown) [Compound 100, 9-amino-2-(3,4-dihydroxy-5-hydroxymethyl-3-methyl-tetrahydro-furan-2-yl)-2,6-dihydro-2,3,5,6-tetraaza-benzo[cd]azulen-7-one, reference compound], in data set [1], the half-life at 1 µg/mL was under 15 min. Besides, the “Permeability Papp” value with Caco-2 cells is “low”. In data set [2] (setting [3]), this compound yielded a solubility at 24 h of 11 µg/mL (≈ 31.7 µM).

As for `CCCCCOC(=O)OC[C@H]1O[C@@H](n2cc3c4c(ncnc42)NC(=O)C=C3N)[C@@](C)(O)[C@@H]1O` (stereo in doubt) [Compound 103, Carbonic acid 5-(9-amino-7-oxo-6,7-dihydro-2,3,5,6-tetraaza-benzo[cd]azulen-2-yl)-3,4-dihydroxy-4-methyl-tetrahydro-furan-2-ylmethylester pentyl ester], in data set [1], the half-life at 1 µg/mL is at most 30 min. Also, in the data set on Caco-2 cells, the “Permeability Papp” value is recorded as “low”.

Turning to `CC(C)C(=O)OC[C@H]1O[C@@H](n2cc3c4c(ncnc42)NC(=O)C=C3N)[C@@]2(C)OC(=O)O[C@H]12` [Compound 106, Isobutyric acid 6-(9-amino-7-oxo-6,7-dihydro-2,3,5,6-tetraaza-benzo[cd]azulen-2-yl)-6a-methyl-2-oxo-tetrahydro-furo[3,4-d][1,3]dioxol-4-ylmethyl ester], the half-life at 1 µg/mL in data set [1] was under 30 min. Besides, the “Permeability Papp” value in the data set with Caco-2 cells is listed as “high”. For the same compound, the solubility at 24 h in data set [2] (setting [3]) was 65 µg/mL (≈ 147 µM).

On to `CCCCCC(=O)O[C@@H]1[C@@H](CO)O[C@@H](n2cc3c4c(ncnc42)NC(=O)C=C3N)[C@]1(C)O` [Compound 113, Hexanoic acid 5-(9-amino-7-oxo-6,7-dihydro-2,3,5,6-tetraaza-benzo[cd]azulen-2-yl)-4-hydroxy-2-hydroxymethyl-4-methyl-tetrahydro-furan-3-yl ester], for which the half-life at 1 µg/mL in data set [1] was under 30 min. In the data set with Caco-2 cells, the “Permeability Papp” value is on record as “medium”. This compound also came in with a solubility at 24 h in data set [2] (setting [3]) of 67 µg/mL (≈ 150 µM).

In the case of `CC(C)C(=O)OC[C@H]1O[C@@H](n2cc3c4c(ncnc42)NC(=O)C=C3N)[C@@](C)(O)[C@@H]1O` (stereo in doubt) [Compound 105, Isobutyric acid 5-(9-amino-7-oxo-6,7-dihydro-2,3,5,6-tetraaza-benzo[cd]azulen-2-yl)-3,4-dihydroxy-4-methyl-tetrahydro-furan-2-ylmethylester], the half-life at 1 µg/mL in data set [1] is under 30 min. In the data set with Caco-2 cells, the “Permeability Papp” value was “high”. This compound also registered a solubility at 24 h in data set [2] (setting [3]) of 9060 µg/mL (≈ 21700 µM).

On to `CCCCCOC(=O)NC1=CC(=O)Nc2ncnc3c2c1cn3[C@@H]1O[C@H](CO)[C@@H](O)[C@@]1(C)O` [Compound 138, [2-(3,4-Dihydroxy-5-hydroxymethyl-3-methyl-tetrahydro-furan-2-yl)-7-oxo-6,7-dihydro-2H-2,3,5,6-tetraaza-benzo[cd]azulen-9-yl]-carbamic acidpentyl ester], for which the half-life at 1 µg/mL in data set [1] was over 120 min. Besides, the “Permeability Papp” value in the data set with Caco-2 cells was “medium”. This compound registered a solubility at 24 h in data set [2] (setting [3]) of 32 µg/mL (≈ 69.3 µM).

As for `CC12OC(=O)O[C@@H]1[C@@H](CO)O[C@H]2n1cc2c3c(ncnc31)NC(=O)C=C2N` (stereo partly shown) [Compound 116, 9-Amino-2-(6-hydroxymethyl-3a-methyl-2-oxo-tetrahydro-furo[3,4-d][1,3]dioxol-4-yl)-2,6-dihydro-2,3,5,6-tetraaza-benzo[cd]azulen-7-one], the half-life at 1 µg/mL in data set [1] is under 30 min. Further, the “Permeability Papp” value in the data set with Caco-2 cells was “low”. The solubility at 24 h in data set [2] (setting [3]) was 202 µg/mL (≈ 541 µM).

On to `CC(=O)N[C@H](C(=O)OC[C@H]1O[C@@H](n2cc3c4c(ncnc42)NC(=O)C=C3N)C(C)(O)[C@@H]1O)C(C)C` (stereo partly shown) [Compound 124, 2-Acetylamino-3-methyl-butyric acid5-(9-amino-7-oxo-6,7-dihydro-2,3,5,6-tetraaza-benzo[cd]azulen-2-yl)-3,4-dihydroxy-4-methyl-tetrahydro-furan-2-ylmethyl ester], for which the half-life at 1 µg/mL in data set [1] is under 30 min. Also, in the data set on Caco-2 cells, the “Permeability Papp” value is listed as “low”. This compound gave a solubility at 24 h in data set [2] (setting [3]) of 6250 µg/mL (≈ 12800 µM).

Regarding `CC(C)C(=O)OC[C@H]1O[C@@H](n2cc3c4c(ncnc42)NC(=O)C=C3N)[C@@](C)(O)[C@@H]1OC(=O)C(C)C` (stereo in doubt) [Compound 134, Isobutyric acid 5-(9-amino-7-oxo-6,7-dihydro-2,3,5,6-tetraaza-benzo[cd]azulen-2-yl)-4-hydroxy-3-isobutyryloxy-4-methyl-tetrahydro-furan-2-ylmethyl ester], the half-life at 1 µg/mL in data set [1] was under 30 min. In addition, in the data set with Caco-2 cells, the “Permeability Papp” value is listed as “low”. In data set [2] (setting [3]), the solubility at 24 h stood at 67 µg/mL (≈ 137 µM).

Turning to `CC(=O)OC[C@H]1O[C@@H](n2cc3c4c(ncnc42)NC(=O)C=C3N)[C@@]2(C)OC(=O)O[C@H]12` [Compound 108, Acetic acid 6-(9-amino-7-oxo-6,7-dihydro-2,3,5,6-tetraaza-benzo[cd]azulen-2-yl)-6a-methyl-2-oxo-tetrahydro-furo[3,4-d][1,3]dioxol-4-ylmethyl ester], the half-life at 1 µg/mL in data set [1] is under 15 min. The “Permeability Papp” value in the data set on Caco-2 cells was “medium”. In data set [2] (setting [3]), the solubility at 24 h turned out to be 28 µg/mL (≈ 67.4 µM).

In the case of `CC(C)C(=O)OCOC(=O)NC1=CC(=O)Nc2ncnc3c2c1cn3[C@@H]1O[C@H](COC(=O)C(C)C)[C@@H](O)C1(C)O` (stereo partly shown) [Compound 129, Isobutyric acid 3,4-dihydroxy-5-(9-isobutyryloxymethoxycarbonyl-amino-7-oxo-6,7-dihydro-2,3,5,6-tetraaza-benzo[cd]azulen-2-yl)-4-methyl-tetrahydro-furan-2-ylmethylester], the half-life at 1 µg/mL in data set [1] is over 120 min. Also, the concentration in solution in data set [2] (sterile water, water) (solubility at 24 h) came to 120 µg/mL (≈ 214 µM).
